The series can be described thus: Pharmacokinetic studies of the prodrugs of probucol in rats (oral gavage, plasma LC/MS/MS). It counts as in vivo. The conditions noted are these: male, Sprague Dawley, rat, 20 mg/kg prodrug by oral gavage, overnight fasting, analyte: prodrug; for AUC(0-t): read-out: AUC0-t of the prodrug in blood; for Cmax: read-out: Cmax of the prodrug in blood; for Tmax: read-out: tmax of the prodrug in blood. The procedure:
Four different kinds of probucol's prodrugs were prepared based on the example 1, 2, 3 and 4 to evaluate their pharmacodynamic and pharmacokinetic characteristics in rats.
Three Sprague Dawley Male Rats were used in each experiment for each prodrug. The laboratory animal models are provided by Shanghai Super-B&K laboratory animal Corp. Ltd. (No. Of animal license SYXK(HU)2008-0016).
Weighed 20 mg sample and dissolved it with 1 ml ethanol. Then, in turn, added 1 ml Solutol HS15 and 8 ml pH4.63 acetate buffer to make the final solution with the concentration of 2 mg/ml. The left soup were saved to run quantitative analysis.
Three Sprague Dawley male rats were given the dose of […] (volume: 10 ml/kg) drugs by oral gavage under the condition of overnight fasting.
Blood (volume: 0.1 ml) was drawn at 0.5, 1.0, 2.0, 4.0, 6.0, 8.0, 24.0 hours pre-dose and post-dose respectively to all animal subjects. Saved the blood samples in heparinized tubes and then centrifuged them for 10 minutes at […] at 4° C. The separated plasma was stored at −20° C. All the process including blood collection and blood analysis should be conducted in low temperatures. Standard meals were provided after 2 hours of dosing.
API 4000 QTRAP LC/MS/MS (Applied Biosystems Corporation, US)
LC-20AD HPLC system (Shimadzu Corporation, Japan)
The prodrug and metabolite probucol were measured at the same time. Took 25 ul rat plasma that drawn at different time points after dosing, and then added 50 ul internal standard YX1162 (200 ng/ml, prepared by acetonitrile) and 175 ul acetonitrile, vortex mixed for 3 minutes, and then centrifuged at 13500 rpm for 10 minutes. Took 10 ul supernatant to run LC/MS/MS analysis.
The prodrug and metabolite probucol were measured at the same time. Took 25 ul rat blank plasma, then added 25 ul solution of standard series to make the drug concentration 1.00, 2.00, 5.00, 25.0, 100, 500, 2000, 20000 and 40000 ng/ml. Next, added 50 ul internal standard YX1162 (200 ng/ml, prepared by acetonitrile) and 150 ul acetonitrile, then followed the same protocol shown in 3.4.
Set plasma concentration as X-axis and the ratio of chromatographic peak areas for sample and internal standard as Y-axis, then used weighted least square method (w=1/x^2) to conduct linear regression analysis.

Turning to `CCOC(=O)OCOc1c(C(C)(C)C)cc(SC(C)(C)Sc2cc(C(C)(C)C)c(O)c(C(C)(C)C)c2)cc1C(C)(C)C` [Example 1], the AUC(0-t) turned out to be 758 ± 204 ng·h/mL, the maximum concentration (Cmax) (usually the highest concentration seen after dosing) is 218 ± 26 ng/mL and the Tmax (commonly the time at which the peak concentration occurs) was determined as 2.17 ± 1.31 h.

Take `CCOC(=O)OC(C)Oc1c(C(C)(C)C)cc(SC(C)(C)Sc2cc(C(C)(C)C)c(O)c(C(C)(C)C)c2)cc1C(C)(C)C` (stereo not drawn) [Example 2]: the AUC(0-t) worked out at 1070 ± 404 ng·h/mL, the highest concentration (Cmax) was found to be 268 ± 56 ng/mL and the Tmax amounted to 2.37 ± 1.41 h.

For the origin of these results see patent US9650332B1, “Prodrug of probucol and method for preparing the same” (priority 2016, dated 2017).
